PMC10600239, “Selective MCL-1 inhibitor ABBV-467 is efficacious in tumor models but is associated with cardiac troponin increases in patients” (Communications Medicine, 2023)
Like-named read-outs stand apart in the source and are kept apart here.

Test: Phase 1 first-in-human study (NCT04178902): pharmacokinetics
Type: in vivo
Conditions: for AUC(0-inf) / AUC(0-t) / clearance / Cmax / Tmax / half-life: plasma; for Cmax: read-out: Cmax; for Tmax: read-out: Tmax (converted)
Text: Other eligibility criteria included: Eastern Cooperative Oncology Group performance status ≤2, measurable disease as defined by International Myeloma Working Group (IMWG) consensus criteria, an echocardiogram with an ejection fraction ≥50%, and adequate hematologic, hepatic, and renal function. […] Safety evaluations included, but were not limited to, adverse event (AE) monitoring, physical examinations, vital sign measurements, electrocardiogram (ECG), cardiac enzyme monitoring, and clinical laboratory testing (hematology and chemistry) as a measure of safety and tolerability for the entire study duration. Parameters used to determine PK included maximum observed plasma concentration (Cmax), terminal elimination half-life (t1/2), area under the plasma concentration-time curve (AUC) from time 0 to time of last measurable concentration (AUCt), AUC from time 0 to infinity (AUC0-∞), and clearance using non-compartmental methods. […] Preliminary efficacy endpoints were overall response rate (ORR), clinical benefit rate (CBR), and duration of response (DOR) as evaluated per adapted IMWG[36] criteria for MM and per adapted International Working Group (IWG)[37] and European Leukemia Net (ELN)[38] criteria for AML. […]

[1] = human, intravenous, 0.32 mg/kg, Cycle 1 day 1, dose level 0.32 mg/kg (only half of this dose given), N=2, individual values
[2] = human, intravenous, 0.53 mg/kg, Cycle 1 day 1, dose level 0.53 mg/kg (only half of this dose given), N=3
[3] = human, intravenous, 0.53 mg/kg, Cycle 1 day 15, 0.53 mg/kg, N=2, individual values

Work on `Cc1c(Cl)c2c(Cl)c(C)c1-c1c(-c3ccc(F)cc3)sc3ncnc(c13)O[C@@H](C(=O)O)Cc1cc(ccc1OCc1ccnc(-c3ccc(OC[C@H]4COCCO4)cc3)n1)OC[C@@H](CN1CCN(C)CC1)O2` [ABBV-467] yielded a concentration at 0.5 h (human, in vivo, 0.08 mg/kg, Cycle 1 Day 1, DOSE_MGKG 0.08, cohort 1, PKTIME 0.5, read-out: CONC_NGML) of 252 ng/mL, a concentration at 4.5 h (human, in vivo, 0.08 mg/kg, Cycle 1 Day 1, DOSE_MGKG 0.08, cohort 1, PKTIME 4.5, read-out: CONC_NGML) of 0 ng/mL and a concentration at […] (human, in vivo, 0.08 mg/kg, Cycle 1 Day 1, DOSE_MGKG 0.08, cohort 1, PKTIME 8.5, read-out: CONC_NGML) of 0 ng/mL. It also gave a concentration at […] (human, in vivo, 0.08 mg/kg, Cycle 1 Day 1, DOSE_MGKG 0.08, cohort 1, PKTIME 24.5, read-out: CONC_NGML) of 0 ng/mL, a concentration at 0 h (human, in vivo, 0.265 mg/kg, Cycle 1 Day 1, DOSE_MGKG 0.265, cohort 3, PKTIME 0, read-out: CONC_NGML) of 0 ng/mL and a concentration at 20 min (human, in vivo, 0.265 mg/kg, Cycle 1 Day 1, DOSE_MGKG 0.265, cohort 3, PKTIME 0.333333, read-out: CONC_NGML) of 904 ng/mL. For the same molecule, the concentration at 0.5 h (human, in vivo, 0.265 mg/kg, Cycle 1 Day 1, DOSE_MGKG 0.265, cohort 3, PKTIME 0.5, read-out: CONC_NGML) was 564 ng/mL, the concentration at 1.5 h (human, in vivo, 0.265 mg/kg, Cycle 1 Day 1, DOSE_MGKG 0.265, cohort 3, PKTIME 1.5, read-out: CONC_NGML) was 14.9 ng/mL and the concentration at […] (human, in vivo, 0.265 mg/kg, Cycle 1 Day 1, DOSE_MGKG 0.265, cohort 3, PKTIME 2.5, read-out: CONC_NGML) was 8.88 ng/mL. The concentration at […] (human, in vivo, 0.265 mg/kg, Cycle 1 Day 1, DOSE_MGKG 0.265, cohort 3, PKTIME 8.5, read-out: CONC_NGML) was 0 ng/mL, the concentration at […] (human, in vivo, 0.265 mg/kg, Cycle 1 Day 1, DOSE_MGKG 0.265, cohort 3, PKTIME 24.5, read-out: CONC_NGML) was 0 ng/mL and the concentration at 0 h (human, in vivo, 0.32 mg/kg, Cycle 1 Day 15, DOSE_MGKG 0.32, cohort 2, PKTIME 0, read-out: CONC_NGML) was 0 ng/mL. It also gave a concentration at 20 min (human, in vivo, 0.32 mg/kg, Cycle 1 Day 15, DOSE_MGKG 0.32, cohort 2, PKTIME 0.333333, read-out: CONC_NGML) of 646 ng/mL, a concentration at […] (human, in vivo, 0.32 mg/kg, Cycle 1 Day 15, DOSE_MGKG 0.32, cohort 2, PKTIME 8.5, read-out: CONC_NGML) of 0 ng/mL and a concentration at […] (human, in vivo, 0.32 mg/kg, Cycle 1 Day 15, DOSE_MGKG 0.32, cohort 2, PKTIME 24.5, read-out: CONC_NGML) of 0 ng/mL. The concentration at 10 min (human, in vivo, 0.53 mg/kg, Cycle 1 Day 15, DOSE_MGKG 0.53, cohort 3, PKTIME 0.166667, read-out: CONC_NGML) was 731 ng/mL, the concentration at 20 min (human, in vivo, 0.53 mg/kg, Cycle 1 Day 15, DOSE_MGKG 0.53, cohort 3, PKTIME 0.333333, read-out: CONC_NGML) was 1370 ng/mL and the concentration at 0.5 h (human, in vivo, 0.53 mg/kg, Cycle 1 Day 15, DOSE_MGKG 0.53, cohort 3, PKTIME 0.5, read-out: CONC_NGML) was 1860 ng/mL. For the same molecule, the concentration at 1.5 h (human, in vivo, 0.53 mg/kg, Cycle 1 Day 15, DOSE_MGKG 0.53, cohort 3, PKTIME 1.5, read-out: CONC_NGML) was 87.9 ng/mL, the concentration at […] (human, in vivo, 0.53 mg/kg, Cycle 1 Day 15, DOSE_MGKG 0.53, cohort 3, PKTIME 2.5, read-out: CONC_NGML) was 27.3 ng/mL and the concentration at 4.5 h (human, in vivo, 0.53 mg/kg, Cycle 1 Day 15, DOSE_MGKG 0.53, cohort 3, PKTIME 4.5, read-out: CONC_NGML) was 11.3 ng/mL. It also gave a concentration at […] (human, in vivo, 0.53 mg/kg, Cycle 1 Day 15, DOSE_MGKG 0.53, cohort 3, PKTIME 8.5, read-out: CONC_NGML) of 0 ng/mL, a concentration at […] (human, in vivo, 0.53 mg/kg, Cycle 1 Day 15, DOSE_MGKG 0.53, cohort 3, PKTIME 24.5, read-out: CONC_NGML) of 0 ng/mL and an AUC(0-inf) [1] of 167 ng·h/mL. The AUC(0-t) [1] was 159 ng·h/mL, the clearance [1] was 15.9 mL/min/kg and the Cmax [1] was 474 ng/mL. For the same molecule, the Tmax [1] was 20 min, the half-life (human, intravenous, 0.32 mg/kg, Cycle 1 day 1, dose level 0.32 mg/kg (only half of this dose given), N=2, individual values, read-out: t1/2) was 50.8 min and the AUC(0-inf) [2] was 435 ng·h/mL. It also gave an AUC(0-t) [2] of 428 ng·h/mL, a clearance [2] of 10.2 mL/min/kg and a half-life (human, intravenous, 0.53 mg/kg, Cycle 1 day 1, dose level 0.53 mg/kg (only half of this dose given), N=3, harmonic mean (pseudo SD), read-out: t1/2) of 55.5 min. The Tmax (human, intravenous, 0.53 mg/kg, Cycle 1 day 1, dose level 0.53 mg/kg (only half of this dose given), N=3, median) was 30 min, the AUC(0-inf) [3] was 933 ng·h/mL and the AUC(0-t) [3] was 921 ng·h/mL. It also gave a clearance [3] of 9.47 mL/min/kg, a Cmax [3] of 1510 ng/mL and a Tmax [3] of 30 min. It also gave a half-life (human, intravenous, 0.53 mg/kg, Cycle 1 day 15, 0.53 mg/kg, N=2, individual values, read-out: t1/2) of 63.3 min, a half-life (human, intravenous, […], Cycle 1 day 1, dose level […] (only half of this dose given), N=3, harmonic mean (pseudo SD), read-out: t1/2) of 16.1 min and a Tmax (human, intravenous, […], Cycle 1 day 1, dose level […] (only half of this dose given), N=3, median) of 30 min. For the same molecule, the clearance (human, intravenous, […], Cycle 1 day 15, […], N=3) was 10.4 mL/min/kg, the Tmax (human, intravenous, […], Cycle 1 day 15, […], N=3, median) was 30 min and the half-life (human, iv, patients, 30-minute IV infusion, 0.08–0.53 mg/kg, read-out: average half-life) was less than 60 min. The “time after completion of infusion at which circulating plasma concentrations were eliminated” value (patients, 30-minute IV infusion) was 4 h.
